Patent US20250268980A1, “AN ANTICANCER THERAPY TARGETING RAS AND OTHER ONCOGENIC SIGNALS BY INHIBITION OF DYNAMIC BLEBBING AND/OR SEPTINS” (THE BOARD OF REGENTS OF THE UNIVERSITY OF TEXAS SYSTEM, priority 2022, published 2025)

Columns and labels:
[1] = tested on: cortical septin structures in MV3 cells; assay: Cortical septin localization (SEPT6-GFP) in MV3 cells; assay type: cell-based, human
Procedure: Cells Embedded in 3D Collagen.
Cells Grown in VitroGel Coffins. VitroGel coffins were prepared by embedding MV3 or A375 cells in VitroGel 3D or RGD at 1:1 dilution according to manufacturer's instructions (TheWell Biosciences, sku #TWG001). […] A 1:1 solution of VitroGel and VitroGel Dilution Solution was made and added to cell suspension at a ratio of 4:1 (VitroGel: cells) using gentle pipetting until well-mixed (with care taken not to form bubbles). Cell/VitroGel solution was transferred to an 8-well uncoated ibidi μ-slide (ibidi cat #80821) at 100 μl/well, spread over the bottom of wells with a pipette tip, and allowed to polymerize at room temperature for 15 minutes. The remainder of the well was then filled with 10% FBS DMEM and slide was stored at 37° C. and 5% CO2 for either 24 hrs for viability assays, 3 hrs for ERK activity assays, or 1 hour for visualization of septins/PI3K activity.
3D Light-Sheet Imaging. […] All images were saved in the OME-TIFF format.
3D Cell Image Analysis. Cell morphology and septin localization were analyzed principally via u-shape3D similar to the protocol described in Driscoll et al. Nature Methods. 16, 1037-1044 (2019), the disclosure of which is incorporated herein in its entirety. Briefly, 3D images were first deconvolved using either a Richardson-Lucy or Wiener algorithm with an experimentally measured point spread function. […] Cell surfaces were then represented as triangle meshes, and the mean surface curvature at every triangle was calculated according to methods described in Driscoll et al. Nature Methods. […] Septin and NRAS localization was measured from fluorescence images by extending a sphere of either 1 μm (for septins) or 2 μm (for NRAS) about each mesh triangle and mapping to the triangle the average intensity both within that sphere and the cell. Image intensity was not depth normalized prior to analysis, but was instead measured from the raw, undeconvolved image. […]
Cortical septin levels were quantified by measuring the mean cytoplasmic intensity of each cell using hand-drawn ROIs that excluded nuclei (performed with the FIJI ImageJ package), and then calculating for each cell its fraction of cortical voxels (intracellular voxels within 0.96 μm of the u-Shape3D-derived surface) that were higher than that cell's mean cytoplasmic intensity (performed using a MATLAB script). NRAS enrichment at the surface was quantified by first calculating the total amount of intracellular signal expected to be within 0.96 μm of the surface if the cell's signal was homogenously distributed between all voxels, and then calculating the percent change between this value and the observed value for each cell. […]

MEF cells = assay: Caspase activity assay (CellEvent Caspase-3/7) in MEF cells expressing DYN2 (K44A); assay type: cell-based, mouse; conditions: 10 μg/mL WGA or 50 μM FCF; for anoikis resistance acquired by DYN2 (K44A) expression: MEF DYN2 (K44A); for caspase activation: detached MEF DYN2 (K44A), 4 hours
Text: Inhibitors. Wheat Germ Agglutinin (WGA) was purchased from Sigma (product #L9640). Forchlorfenuron (FCF) was purchased from Sigma (product #C2791). VitroGel and VitroGel-RGD were purchased from TheWell Bioscience (sku #s TWG001 and TWG002). H1152 was purchased from Tocris (catalogue #2414). NSC6683394 was purchased from Sigma (product #341216). Dabrafenib (GSK2118436), and Trametinib (GSK1120212) were purchased from Selleckchem. Transient expression of dominant negative Dyn2 (K44A) 66,67 was achieved through adenovirus transduction68 as previously described69 with cells analyzed 16-18 hours after transduction.
Detached/Adhered Cell Culture. […] Drug treatments, solvent-only controls, or CellEvent caspase activity sensor were added to suspensions if appropriate to the experiment, and then immediately transferred to both an uncoated (for detached cells) and ibiTreated (for adhered cells) 8-well ibidi u-slide (ibidi cat #80821 and 80826) at 200 μl/well. Both slides were stored at 37° C. and 5% CO2 for either 24 hours (hrs) for viability assays, 3 hrs for ERK activity assays or 4 hours for caspase activation assays. Uncoated slides (detached) were nutated at 20 rpm during this time. […] For experiments using MAPKi A375 cells, Dabrafenib and Trametinib treatment was continued over the course of the experiment.
Viability, ERK Activity, and Caspase ActivityCell Counting Assays. Viability, ERK activity, and caspase activity assays were analyzed using live-cell fluorescent and phase-contrast microscopy, performed on a Nikon Ti microscope equipped with an environmental chamber held at 37° C. and 5% CO2 at 20× magnification. For viability assays, cells were stained with ethidium homodimer-1 (Invitrogen cat #E1169) at 4 µM and Hoechst (ThermoFisher cat #H3570) at 10 μg/ml for 15 minutes before imaging. Live and dead cells (as identified by significant cellular ethidium signal) were counted using the Cell Counter ImageJ plugin. For ERK activity assays, live cells carrying ERK-nKTR-GFP and H2B-mCherry were imaged after 3 hours of experimental conditions and high/low ERK activity cells were counted with Cell Counter ImageJ plugin. Cells in which nuclear GFP signals were by eye higher than cytoplasmic signal (“brighter” nucleus visible within “darker” cytoplasm) were labelled ERK low, while cytoplasmic signals equal to or higher than nuclear signal (nucleus indistinguishable from cytoplasm or “darker” nucleus within “brighter” cytoplasm) were labelled ERK high. To control for unconscious bias in making this determination, the identity of all ERK experimental groups were blinded from the analyst. […] Caspase positive and negative cells (as identified by significant cellular CellEvent signal) were counted using the Cell Counter ImageJ plugin.

Row | Compound | cortical septin structures ([1]; MV3 SEPT6-GFP, FCF treatment) | anoikis resistance acquired by DYN2 (K44A) expression (MEF cells) | caspase activation (MEF cells) | cortical septin levels (fraction of cortical voxels above mean cytoplasmic SEPT6-GFP intensity) ([1]; MV3, relative to control conditions) | septin localization (cortical levels) ([1]; MV3 SEPT6-GFP, WGA (50 ug/ml), VitroGel, H1152 (1 μM), NSC668394 (10 μM))
1 | O=C(Nc1ccccc1)Nc1ccnc(Cl)c1 [FCF, forchlorfenuron] | near-complete ablation of cortical septin structures | reversed | returned to levels seen in matched non-blebbing control cells |  | 
2 | wheat germ agglutinin [WGA] |  | reversed | returned to levels seen in matched non-blebbing control cells | significantly reduced cortical septin levels | pronounced effects on septin localization, reducing cortical levels
